In US9884868B2, “TGF-beta inhibitors” (Rigel Pharmaceuticals, Inc., priority 2015, dated 2018) one finds IC50 data, which are given here for 36 compounds.

Each structure is given as a SMILES string.

For the assay, the target named is HIS-TGF-βR1 T204D (Homo sapiens (Human), UniProt P36897, T204D). The assay can be described thus: HTRF probe displacement assay with HIS-TGF-βR1 T204D. Conditions: read-out: TGFbr1 IC50; HTRF probe displacement, 1 nM HIS-TGF-βR1 T204D, 1 hour at room temperature. Background: Time-resolved FRET reads energy transfer from a long-lived donor to a nearby acceptor.
HIS-TGF-βR1 T204D, sequence (P36897 34-503 T204D): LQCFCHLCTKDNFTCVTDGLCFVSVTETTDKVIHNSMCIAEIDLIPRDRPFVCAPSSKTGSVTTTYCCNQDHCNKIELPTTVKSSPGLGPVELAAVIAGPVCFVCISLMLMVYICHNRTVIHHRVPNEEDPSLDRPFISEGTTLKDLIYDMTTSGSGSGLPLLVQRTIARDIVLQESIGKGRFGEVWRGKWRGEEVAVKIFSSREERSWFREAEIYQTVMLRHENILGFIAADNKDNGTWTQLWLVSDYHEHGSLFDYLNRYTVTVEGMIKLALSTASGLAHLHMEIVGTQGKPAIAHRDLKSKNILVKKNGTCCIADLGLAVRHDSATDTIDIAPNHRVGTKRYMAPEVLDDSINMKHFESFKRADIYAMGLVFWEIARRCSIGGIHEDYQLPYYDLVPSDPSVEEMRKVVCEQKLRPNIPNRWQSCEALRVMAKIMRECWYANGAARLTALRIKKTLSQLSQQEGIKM

Turning to `N#Cc1cnc2ccc(-c3c(-c4cccc(CO)c4)ncn3CC(F)F)nn12` [256′, 6-(1-(2,2-difluoroethyl)-4-(3-(hydroxymethyl)phenyl)-1H-imidazol-5-yl)imidazo[1,2-b]pyridazine-3-carbonitrile], the IC50 was found to be 5 nM.

For `N#Cc1cnc2ccc(-c3c(-c4ccc(F)c(Cl)c4)ncn3C34CC(C3)C4)nn12` [59′, 6-(1-(bicyclo[1.1.1]pentan-1-yl)-4-(3-chloro-4-fluorophenyl)-1H-imidazol-5-yl)imidazo[1,2-b]pyridazine-3-carbonitrile], the concentration for half-maximal inhibition (IC50) came to 1.1 nM.

On to `N#Cc1cnc2ccc(-c3c(-c4ccc(F)c(Cl)c4)ncn3[C@H]3C[C@@H](O)C3)nn12` [Example 39′, 6-(4-(3-chloro-4-fluorophenyl)-1-((cis)-3-hydroxycyclobutyl)-1H-imidazol-5-yl)imidazo[1,2-b]pyridazine-3-carbonitrile], for which the concentration for half-maximal inhibition (IC50) amounted to 0.9 nM. For `N#Cc1cnc2ccc(-c3c(-c4ccc(F)c(Cl)c4)ncn3CCO)nn12` [Example 32′, 6-(4-(3-chloro-4-fluorophenyl)-1-(2-hydroxyethyl)-1H-imidazol-5-yl)imidazo[1,2-b]pyridazine-3-carbonitrile], the concentration for half-maximal inhibition (IC50) worked out at 1.8 nM. In the case of `NC(=O)c1cnc2ccc(-c3c(-c4ccc(F)c(Cl)c4)ncn3C3CCOC3)nn12` (stereo not drawn) [146′, 6-(4-(3-chloro-4-fluorophenyl)-1-(tetrahydrofuran-3-yl)-1H-imidazol-5-yl)imidazo[1,2-b]pyridazine-3-carboxamide], the IC50 was 1.7 nM. `CC(C)(O)CCn1cnc(-c2ccc(F)cc2)c1-c1ccc2ncc(C#N)n2n1` [12′, 6-(4-(4-fluorophenyl)-1-(3-hydroxy-3-methylbutyl)-1H-imidazol-5-yl)imidazo[1,2-b]pyridazine-3-carbonitrile]: the IC50 stood at 2.1 nM.

In the case of `N=C(NO)c1cnc2ccc(-c3c(-c4ccc(F)cc4)ncn3CC(F)F)nn12` [Example 203′, 6-(1-(2,2-difluoroethyl)-4-(4-fluorophenyl)-1H-imidazol-5-yl)-N-hydroxyimidazo[1,2-b]pyridazine-3-carboximidamide], the half-maximal inhibitory concentration (IC50) stood at 1.1 nM. Turning to `N#Cc1cnc2ccc(-c3c(-c4ccc(F)c(Cl)c4)ncn3CC3CC3)cn12` [96′, 6-(4-(3-chloro-4-fluorophenyl)-1-(cyclopropylmethyl)-1H-imidazol-5-yl)imidazo[1,2-a]pyridine-3-carbonitrile], the half-inhibitory concentration (IC50) came to 94.4 nM. For `NC(=O)c1cnc2ccc(-c3c(-c4ccc(F)c(Cl)c4)ncn3CCF)nn12` [114′, 6-(4-(3-chloro-4-fluorophenyl)-1-(2-fluoroethyl)-1H-imidazol-5-yl)imidazo[1,2-b]pyridazine-3-carboxamide], the IC50 was 1.3 nM. As for `CCOCCn1cnc(-c2ccc(F)cc2)c1-c1ccc2ncc(C#N)n2c1` [91′, 6-(1-(2-ethoxyethyl)-4-(4-fluorophenyl)-1H-imidazol-5-yl)imidazo[1,2-a]pyridine-3-carbonitrile], the half-inhibitory concentration (IC50) was determined as 18.8 nM. Turning to `N#Cc1cnc2ccc(-c3c(-c4ccc(F)c(Cl)c4)ncn3[C@H]3CCC(F)(F)C3)nn12` [64′, (S)-6-(4-(3-chloro-4-fluorophenyl)-1-(3,3-difluorocyclopentyl)-1H-imidazol-5-yl)imidazo[1,2-b]pyridazine-3-carbonitrile], the IC50 came to 5.1 nM. The result for `N#Cc1cnc2ccc(-c3c(-c4ccc(F)c(Cl)c4)ncn3C3CCOC3)nn12` (stereo not drawn) [46′, 6-(4-(3-chloro-4-fluorophenyl)-1-(tetrahydrofuran-3-yl)-1H-imidazol-5-yl)imidazo[1,2-b]pyridazine-3-carbonitrile] reads 1.5 nM; that for `N#Cc1cnc2ccc(-c3c(-c4ccc(F)cc4)ncn3C3COC3)cn12` [78′, 6-(4-(4-fluorophenyl)-1-(oxetan-3-yl)-1H-imidazol-5-yl)imidazo[1,2-a]pyridine-3-carbonitrile], 568 nM. Turning to `N#Cc1cnc2ccc(-c3c(-c4ccc(F)c(F)c4)ncn3CC(F)F)cn12` [226′, 6-(1-(2,2-difluoroethyl)-4-(3,4-difluorophenyl)-1H-imidazol-5-yl)imidazo[1,2-a]pyridine-3-carbonitrile], the IC50 is 73.2 nM.

With `N#Cc1cnc2ccc(-c3c(-c4ccc(F)c(Cl)c4)ncn3CCCO)nn12` [38′, 6-(4-(3-chloro-4-fluorophenyl)-1-(3-hydroxypropyl)-1H-imidazol-5-yl)imidazo[1,2-b]pyridazine-3-carbonitrile], the IC50 turned out to be 1 nM. The result for `CC(C)n1cnc(-c2ccc(F)cc2)c1-c1ccc2ncc(C#N)n2n1` [24′, 6-(4-(4-fluorophenyl)-1-isopropyl-1H-imidazol-5-yl)imidazo[1,2-b]pyridazine-3-carbonitrile] reads 0.4 nM.

Take `Fc1ccc(-c2ncn(CC(F)F)c2-c2ccc3ncc(C(F)F)n3n2)cc1` [Example 215′, 6-(1-(2,2-difluoroethyl)-4-(4-fluorophenyl)-1H-imidazol-5-yl)-3-(difluoromethyl)imidazo[1,2-b]pyridazine]: the IC50 was 0.8 nM. Regarding `NC(=O)c1cnc2ccc(-c3c(-c4ccc(F)cc4)ncn3C[C@@H](O)CO)cn12` [164′, (R)-6-(1-(2,3-dihydroxypropyl)-4-(4-fluorophenyl)-1H-imidazol-5-yl)imidazo[1,2-a]pyridine-3-carboxamide], the IC50 stood at 5.7 nM.

`CC(O)CCn1cnc(-c2ccc(F)cc2)c1-c1ccc2ncc(C#N)n2c1` (stereo not drawn) [69′, 6-(4-(4-fluorophenyl)-1-(3-hydroxybutyl)-1H-imidazol-5-yl)imidazo[1,2-a]pyridine-3-carbonitrile]: the IC50 came to 151 nM.

Take `Cn1cnc(-c2ccc(F)c(Cl)c2)c1-c1ccc2nccn2c1` [181′, 6-(4-(3-chloro-4-fluorophenyl)-1-methyl-1H-imidazol-5-yl)imidazo[1,2-a]pyridine]: the IC50 amounted to 6 nM. The result for `N#Cc1cnc2ccc(-c3c(-c4ccc(F)cc4)ncn3CCCF)cn12` [84′, 6-(4-(4-fluorophenyl)-1-(3-fluoropropyl)-1H-imidazol-5-yl)imidazo[1,2-a]pyridine-3-carbonitrile] reads 121 nM; that for `N#Cc1cnc2ccc(-c3c(-c4ccc(F)cc4)ncn3C3CC(F)(F)C3)cn12` [66′, 6-(1-(3,3-difluorocyclobutyl)-4-(4-fluorophenyl)-1H-imidazol-5-yl)imidazo[1,2-a]pyridine-3-carbonitrile], 418 nM; that for `C[C@H](O)Cn1cnc(-c2ccc(F)cc2)c1-c1ccc2ncc(C(N)=O)n2c1` [158′, (S)-6-(4-(4-fluorophenyl)-1-(2-hydroxypropyl)-1H-imidazol-5-yl)imidazo[1,2-a]pyridine-3-carboxamide], 2.7 nM. Next, `NC(=O)c1cnc2ccc(-c3c(-c4ccc(F)c(Cl)c4)ncn3CCC3CCC3)nn12` [150′, 6-(4-(3-chloro-4-fluorophenyl)-1-(2-cyclobutylethyl)-1H-imidazol-5-yl)imidazo[1,2-b]pyridazine-3-carboxamide]: 1.2 nM; `CCC(C)(C)n1cnc(-c2ccc(F)cc2)c1-c1ccc2ncc(C#N)n2n1` [30′, 6-(4-(4-fluorophenyl)-1-(tert-pentyl)-1H-imidazol-5-yl)imidazo[1,2-b]pyridazine-3-carbonitrile]: 9.2 nM; `Fc1cc(F)c(-c2ncn(CC(F)F)c2-c2ccc3nccn3c2)cc1Cl` [223′, 6-(4-(5-chloro-2,4-difluorophenyl)-1-(2,2-difluoroethyl)-1H-imidazol-5-yl)imidazo[1,2-a]pyridine]: 2.2 nM. In the case of `Cn1cnc(-c2ccc(F)cc2)c1-c1ccc2ncc(C#N)n2n1` [19′, 6-(4-(4-fluorophenyl)-1-methyl-1H-imidazol-5-yl)imidazo[1,2-b]pyridazine-3-carbonitrile], the half-inhibitory concentration (IC50) stood at 9.9 nM. For the compound `CC(C)(O)c1cnc2ccc(-c3c(-c4ccc(F)cc4)ncn3CC(F)F)nn12` [Example 204′, 2-(6-(1-(2,2-difluoroethyl)-4-(4-fluorophenyl)-1H-imidazol-5-yl)imidazo[1,2-b]pyridazin-3-yl)propan-2-ol], the concentration for half-maximal inhibition (IC50) amounted to 1.2 nM. For the compound `OCc1cnc2ccc(-c3c(-c4ccc(F)cc4)ncn3CC(F)F)nn12` [Example 210′, (6-(1-(2,2-difluoroethyl)-4-(4-fluorophenyl)-1H-imidazol-5-yl)imidazo[1,2-b]pyridazin-3-yl)methanol], the concentration for half-maximal inhibition (IC50) came out at 2.2 nM. Next, `CCn1cnc(-c2ccc(F)c(Cl)c2)c1-c1ccc2ncc(C(N)=O)n2c1` [119′, 6-(4-(3-chloro-4-fluorophenyl)-1-ethyl-1H-imidazol-5-yl)imidazo[1,2-a]pyridine-3-carboxamide]: 0.4 nM. As to `CC(CO)n1cnc(-c2ccc(F)cc2)c1-c1ccc2ncc(C(N)=O)n2c1` (stereo not drawn) [152′, 6-(4-(4-fluorophenyl)-1-(1-hydroxypropan-2-yl)-1H-imidazol-5-yl)imidazo[1,2-a]pyridine-3-carboxamide], the half-inhibitory concentration (IC50) turned out to be 1.1 nM.

For `COc1ccc(-c2ncn(CC(F)F)c2-c2ccc3ncc(C#N)n3n2)cc1` [242′, 6-(1-(2,2-difluoroethyl)-4-(4-methoxyphenyl)-1H-imidazol-5-yl)imidazo[1,2-b]pyridazine-3-carbonitrile], the 50% inhibitory concentration (IC50) stood at 5 nM. The result for `Fc1ccc(-c2ncn(CC(F)F)c2-c2ccc3nccn3c2)cc1F` [220′, 6-(1-(2,2-difluoroethyl)-4-(3,4-difluorophenyl)-1H-imidazol-5-yl)imidazo[1,2-a]pyridine] reads 41.4 nM.

For the compound `CC(C)n1cnc(-c2ccc(F)cc2)c1-c1ccc2ncc(C(N)=O)n2c1` [170′, 6-(4-(4-fluorophenyl)-1-isopropyl-1H-imidazol-5-yl)imidazo[1,2-a]pyridine-3-carboxamide], the IC50 stood at 0.5 nM. As to `N#CC1(n2cnc(-c3ccc(F)cc3)c2-c2ccc3nccn3n2)CC1` [Example 188′, 1-(4-(4-fluorophenyl)-5-(imidazo[1,2-b]pyridazin-6-yl)-1H-imidazol-1-yl)cyclopropanecarbonitrile], the half-maximal inhibitory concentration (IC50) stood at 2 nM. With `Fc1ccc(-c2ncn([C@H]3CCC(F)(F)C3)c2-c2ccc3nccn3c2)cc1Cl` [186′, (S)-6-(4-(3-chloro-4-fluorophenyl)-1-(3,3-difluorocyclopentyl)-1H-imidazol-5-yl)imidazo[1,2-a]pyridine], the half-maximal inhibitory concentration (IC50) was 228 nM.

The term IC50 denotes the point on the concentration scale where inhibition reaches its midpoint.
